Laboratory results as given in patent US8853246B2 (Dow AgroSciences LLC, priority 2009, dated 2014).
Where two headings read alike, the source gives them in different places.

How the values were obtained:
[1] = test system: Green Peach Aphid (Myzus Persicae); test: Insecticidal test for green peach aphid in foliar spray assay (col. MYZUPE); type: in vivo; conditions: for pest or weed control at 200 ppm: Myzus persicae, 72 h, read-out: MYZUPE 200 ppm (Corrected % Control, rating)
Procedure, shortened: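 Corrected % control derives from microscope counts of live aphids per plant, treated against diluent-only checks, 3 days after foliar spraying at ~25 °C and 40% RH. Test solution was 200 ppm in 0.025% aqueous Tween 20, applied to both leaf sides of infested cabbage seedlings, four pots each.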

[2] = test system: Sweetpotato Whitefly-Crawler (Bemisia Tabaci); test: Insecticidal test for sweetpotato whitefly-crawler in foliar spray assay (col. BEMITA); type: in vivo; conditions: for pest or weed control at 200 ppm: Bemisia tabaci, read-out: BEMITA 200 ppm (Corrected % Control, rating)
Procedure, shortened: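 Percent control, Abbott-corrected against diluent-sprayed plants, from microscope counts of live nymphs 8-9 days after treatment. Test solution at 200 ppm in 0.025% aqueous Tween 20 applied to both leaf sides of egg-infested cotton after a 5-6 day hatch period (82° F, 50% RH).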

Compound | pest or weed control at 200 ppm ([1]; green peach aphid) | pest or weed control at 200 ppm ([2]; sweetpotato whitefly-crawler) | pest or weed control at 200 ppm ([1]; Abbott's correction formula) | pest or weed control at 200 ppm ([2]; Abbott's correction formula) | other results
Cc1nc(-c2cccnc2)sc1NC(=O)OC(C)(C)C [Compound 9, (4-Methyl-2-pyridin-3-yl-thiazol-5-yl)-carbamic acid tert-butyl ester] | 80 to 100% | 80 to 100% |  |  | 
CSCC(C)C(=O)N(c1sc(-c2cccnc2)nc1C)C(C)C (centres unmarked) [Compound 222] | 80 to 100% | < 80% |  |  | 
CN(C(=O)C1CCCC1)c1sc(-c2cccnc2)nc1Cl [Compound 553] |  |  | < 80% | 80 to 100% | 
Cc1nc(-c2cccnc2)sc1N(C)C(=O)OC1(C)CCCCC1 [Compound 493] |  |  | 80 to 100% | 80 to 100% | 
CN(C(=O)C1CC[S+]([O-])C1)c1sc(-c2cccnc2)nc1Cl (centres unmarked) [Compound 523] |  |  | 80 to 100% | < 80% | 
CC(C)(C)OC(=O)Nc1sc(-c2cccnc2)nc1C(F)(F)F [Compound 7, (2-pyridin-3-yl-4-trifluoromethyl-thiazol-5-yl)-carbamic acid tert-butyl ester] | < 80% | < 80% |  |  | 
CSCC(C)C(=O)N(C)c1sc(-c2cccnc2)nc1C(F)(F)F (centres unmarked) [Compound 44] | 80 to 100% | 80 to 100% |  |  | 
CSCC(C)C(=O)N(C(=O)C(C)C)c1sc(-c2cncc(S(C)(=O)=O)c2)nc1C (centres unmarked) [Compound 152] | < 80% | < 80% |  |  | 
CSC(C)CC(=O)N(C)c1sc(-c2cccnc2)nc1Br (centres unmarked) [Compound 499] |  |  | 80 to 100% | < 80% | 
COCCOC(=O)N(C)c1sc(-c2cccnc2)nc1C [Compound 485] |  |  | 80 to 100% | 80 to 100% | 
CN(C(=O)C(F)(F)F)c1sc(-c2cccnc2)nc1-c1ccccc1 [Compound 4, 2,2,2-Trifluoro-N-methyl-N-(4-phenyl-2-pyridin-3-yl-thiazol-5-yl)-acetamide] | < 80% | < 80% |  |  | 
Cc1nc(-c2cccnc2)sc1N(C)C(=O)CN(C)C(=O)C(C)n1cccn1 (centres unmarked) [Compound 430] |  |  | 80 to 100% | < 80% | 
C=CC(=O)N(C(=O)C(C)CSC)c1sc(-c2cccnc2)nc1C (centres unmarked) [Compound 204] | 80 to 100% | < 80% |  |  | 
CSCC(C)(C)C(=O)Nc1sc(-c2cccnc2)nc1C(F)(F)F [Compound 135] | 80 to 100% | < 80% |  |  | 
CCN(C(=O)C(C)CS(C)(=O)=O)c1sc(-c2cncc(F)c2)nc1C (centres unmarked) [Compound 259] |  |  |  |  | MYZUPE 200 ppm (Corrected % Control, rating) ([1]; green peach aphid): A (80-100); BEMITA 200 ppm (Corrected % Control, rating) ([2]; sweetpotato whitefly-crawler): A (80-100)
Cc1nc(-c2cccnc2)sc1N(C)C(=O)C1CCSC1 (centres unmarked) [Compound 206] | 80 to 100% | 80 to 100% |  |  | 
Cc1nc(-c2cccnc2)sc1NC(=O)c1cnco1 [Compound 342] | < 80% | < 80% |  |  | 
CCN(C(=O)c1ccc(CSC)o1)c1sc(-c2cccnc2)nc1Cl [Compound 545] |  |  | 80 to 100% | < 80% | 
CSCCC(=O)N(C)c1sc(-c2cncc(F)c2)nc1Cl [Compound 266] | 80 to 100% | 80 to 100% |  |  | 
Cc1nc(-c2cccnc2)sc1NC(=O)CN(C)S(=O)(=O)/C=C/c1ccccc1 [Compound 435] |  |  | < 80% | < 80% | 
Cc1nc(-c2cccnc2)sc1N(C(=O)OC(C)(C)C)C(C)C [Compound 13, Isopropyl-(4-methyl-2-pyridin-3-yl-thiazol-5-yl)-carbamic acid tert-butyl ester] | 80 to 100% | 80 to 100% |  |  | 
CC(=O)OC(C)C(=O)N(C)c1sc(-c2cccnc2)nc1C (centres unmarked) [Compound 335] |  |  |  |  | MYZUPE 200 ppm (Corrected % Control, rating) ([1]; green peach aphid): A (80-100); BEMITA 200 ppm (Corrected % Control, rating) ([2]; sweetpotato whitefly-crawler): A (80-100)
CN(C(=O)c1cscn1)c1sc(-c2cccnc2)nc1Cl [Compound 341] |  |  |  |  | MYZUPE 200 ppm (Corrected % Control, rating) ([1]; green peach aphid): B (Less than 80); BEMITA 200 ppm (Corrected % Control, rating) ([2]; sweetpotato whitefly-crawler): B (Less than 80)
CN(C(=O)OC(C)(C)C)c1sc(-c2cccnc2)nc1C(F)(F)F [Compound 10, methyl-(2-pyridin-3-yl-4-trifluoromethyl-thiazol-5-yl)carbamic acid tert-butyl ester] | < 80% | 80 to 100% |  |  | 
CCN(C(=O)OC(C)(C)C)c1sc(-c2cccnc2)nc1C [Compound 12, Ethyl-(4-methyl-2-pyridin-3-yl-thiazol-5-yl)-carbamic acid tert-butyl ester] | 80 to 100% | 80 to 100% |  |  | 
Cc1nc(-c2ccc(F)nc2)sc1N(C(=O)C(C)C)C(=O)C(C)C [Compound 162] | 80 to 100% | 80 to 100% |  |  | 

Compound | pest or weed control at 200 ppm ([1]; green peach aphid) | pest or weed control at 200 ppm ([2]; sweetpotato whitefly-crawler) | pest or weed control at 200 ppm ([1]; Abbott's correction formula) | pest or weed control at 200 ppm ([2]; Abbott's correction formula) | other results
CSCC(C)C(=O)N(C(=O)OC(C)(C)C)c1sc(-c2cncc(C)c2)nc1C (centres unmarked) [Compound 156, [4-methyl-2-(5-methyl-pyridin-3-yl)-thiazol-5-yl]-(2-methyl-3-methylsulfanyl-propionyl)-carbamic acid tert-butyl ester] | 80 to 100% | < 80% |  |  | 
Cc1nc(-c2cccnc2)sc1N(C)C(=O)c1cccc(SC(F)F)c1 [Compound 397] | 80 to 100% | 80 to 100% |  |  | 
CSCC(C)C(=O)N(C)c1sc(-c2cccnc2)nc1Br (centres unmarked) [Compound 505] |  |  | 80 to 100% | 80 to 100% | 
Cc1nc(-c2cccnc2)sc1NC(=O)CN(C)C(=O)c1cccs1 [Compound 438] |  |  | 80 to 100% | < 80% | 
Cc1nc(-c2cccnc2)sc1NC(=O)OC1(C)CCCCC1 [Compound 198] | 80 to 100% | 80 to 100% |  |  | 
CCCC(C)(C)OC(=O)Nc1sc(-c2cccnc2)nc1C [Compound 192] | 80 to 100% | 80 to 100% |  |  | 
CN(C(=O)C1(C)CC1)c1sc(-c2cccnc2)nc1Cl [Compound 566] |  |  | 80 to 100% | 80 to 100% | 
CSCCC(=O)N(C)c1sc(-c2cncc(F)c2)nc1Br [Compound 441] |  |  | 80 to 100% | 80 to 100% | 
CCN(C(=O)C(C)C[S+](C)[O-])c1sc(-c2cncc(F)c2)nc1C (centres unmarked) [Compound 258] | 80 to 100% | 80 to 100% |  |  | 
Cc1nc(-c2cncc(F)c2)sc1N(C)C(=O)C(C)CS(=O)(Cc1ccc(Cl)nc1)=NC#N (centres unmarked) [Compound 167] | < 80% | 80 to 100% |  |  | 
CSCC(C)C(=S)Nc1sc(-c2cccnc2)nc1C (centres unmarked) [Compound 180, 2-methyl-N-(4-methyl-2-pyridin-3-yl-thiazol-5-yl)-3-methylsulfanyl-thiopropionamide] | 80 to 100% | 80 to 100% |  |  | 
C[C@H](C(=O)N(C)c1sc(-c2cccnc2)nc1Cl)N(C)C(=O)OCc1ccccc1 [Compound 440] |  |  | < 80% | < 80% | 
CSCCC(=O)N(C)c1sc(-c2ccc(F)nc2)nc1Cl [Compound 453, N-[4-chloro-2-(6-fluoro-pyridin-3-yl)-thiazol-5-yl]-N-methyl-3-methylsulfanyl-propionamide] |  |  | 80 to 100% | 80 to 100% | 
CCCCN1CCCC(C(=O)N(C)c2sc(-c3cncc(F)c3)nc2C)C1 (centres unmarked) [Compound 587] |  |  | 80 to 100% | 80 to 100% | 
CSCCC(=O)N(C)c1sc(-c2cncnc2)nc1Cl [Compound 509] |  |  | 80 to 100% | 80 to 100% | 
CSC(C)C(=O)N(C(=O)OC(C)(C)C)c1sc(-c2cccnc2)nc1C (centres unmarked) [Compound 357] | 80 to 100% | 80 to 100% |  |  | 
CN(C(=O)CC[S+](C)[O-])c1cnc(-c2cncc(F)c2)s1 (centres unmarked) [Compound 78, N-[2-(5-fluoropyridin-3-yl)-thiazol-5-yl]-3-methanesulfinyl-N-methyl-propionamide] | 80 to 100% | < 80% |  |  | 
CCN(C(=O)C(C)C)c1sc(-c2cncc(F)c2)nc1F [Compound 424] | 80 to 100% | 80 to 100% |  |  | 
CCN(C(=O)c1cnco1)c1sc(-c2cccnc2)nc1Cl [Compound 542] |  |  | 80 to 100% | 80 to 100% | 
Cc1nc(-c2cccnc2)sc1NC(=O)c1cscn1 [Compound 340] | 80 to 100% | < 80% |  |  | 
CSC(C)C(=O)N(C)c1sc(-c2cccnc2)nc1C (centres unmarked) [Compound 360] | 80 to 100% | < 80% |  |  | 
Cc1nc(C)n(CC(C)C(=O)Nc2sc(-c3cccnc3)nc2C)n1 (centres unmarked) [Compound 332] | 80 to 100% | < 80% |  |  | 
C=CCSCC(C)C(=O)N(C)c1sc(-c2cccnc2)nc1C (centres unmarked) [Compound 138] | 80 to 100% | 80 to 100% |  |  | 
CCN(C(=O)CC(C)SC)c1sc(-c2cccnc2)nc1Cl (centres unmarked) [Compound 324] | 80 to 100% | < 80% |  |  | 
COCN(C(=O)C(C)CSC)c1sc(-c2cccnc2)nc1C (centres unmarked) [Compound 196] | 80 to 100% | 80 to 100% |  |  | 
Cc1nc(-c2cccnc2)sc1N(C)C(=O)C(C)C [Compound 37] | 80 to 100% | 80 to 100% |  |  | 
